Laboratory results published in patent US20200237764A1, “DRUG COMBINATIONS FOR TARGETING MULTIPLE MUTATIONS IN CANCER” (CureMatch, Inc., priority 2017, published 2020).

Test system: CAPAN2 cells
Experiment: WST-1 colorimetric cell viability assay in CAPAN2 cells
Format: cell-based, human
Settings: for IC20 / IC50: Homo sapiens, Capan-2, CAPAN2 cell survival; for cell death: at 300 nM, 48 hrs
Description: The human pancreatic cancer cell line CAPAN2, was purchased from the American Type Culture Collection (ATCC; Manassas, Va.). Cells were grown in McCoy's Modified 5A media supplemented with 10% FCS, 1× penicillin/streptomycin and 1× amphotericin. For testing, cells were released from the dishes by treatment with PBS (without calcium) for ˜30 min followed by 0.25% trypsin-EDTA for 5 minutes at 37 C. Cells were collected in a 15 ml centrifuge tube and spun down in a clinical centrifuge for 5 min and then re-suspended in 1 ml of fresh media and the cells were counted using a hemocytometer. Cells (1×10^3-5×10^3) were then seeded into 96-well plates in 100 μL of media and the cells were incubated for 48 hours. After 48 hours, the media was replaced and the cells were re-incubated for another 24 hours prior to treatment with the drugs.
Stock drug solutions were prepared in complete media from master stock solutions prepared in DMSO according to the manufacturer's instructions. Using these stock solutions, 1:1, 2:1, 5:1, and 10:1 volume-volume (v/v) mixtures of regorafenib and trametinib were prepared. These mixtures were then two-fold serially diluted to generate a range of 20 concentrations in each case. The cells were incubated in drug mixtures for 48-72 hours before cell viability assay/assessment.
Cell viability was determined using a WST-1 colorimetric cell proliferation assay (Roche), according to manufacturer's instructions. The stable tetrazolium salt WST-1 is cleaved to a soluble formazan by a complex cellular mechanism that occurs primarily at the cell surface. This reduction is largely dependent on the glycolytic production of NAD(P)H in viable cells. Therefore, the amount of formazan dye formed, and estimated using a spectrophotometer (BIO-TEK 340, BIOTEK) directly correlates to the number of metabolically active cells in the culture. All testing points were done at least in triplicate.

[1] = monotherapy, two-fold serial dilution 2 nM to 1 mM, 48-72 hours

| Structure (SMILES) | effect on CAPAN2 cell survival (in words) (CAPAN2 cells, 48-72 hours) | maximum decrease in cell viability (CAPAN2 cells, concentration of 1 mM, 48-72 hours) [%] | IC20 [1] [µM] | cell death (CAPAN2 cells) [%] | IC50 (2 nM to 1 mM) [µM] | IC50 (100 μM to 0.2 nM, 48-72 hours) [µM] | IC20 (48-72 hours) [µM] |
| --- | --- | --- | --- | --- | --- | --- | --- |
| Nc1ccn([C@@H]2O[C@H](CO)[C@@H](O)C2(F)F)c(=O)n1 [gemcitabine] | little, if any, effect on cell survival | −30 | 111 |  |  |  |  |
| CNC(=O)c1cc(Oc2ccc(NC(=O)Nc3ccc(Cl)c(C(F)(F)F)c3)c(F)c2)ccn1 [regorafenib] | significant reduction in cell survival |  | 2 | −2 | 7.1 |  |  |
| CC(=O)Nc1cccc(-n2c(=O)n(C3CC3)c(=O)c3c(Nc4ccc(I)cc4F)n(C)c(=O)c(C)c32)c1 [trametinib] |  |  |  | −10 |  | 0.028 | 0.004 |
